Values of other authors in patent US8512957B2, “Toxicity typing using liver stem cells” (Vistagen Therapeutics, Inc., priority 2000, dated 2013).

Key:
[1] = known toxicity class, printed in first toxicity column (Dev = developmental)
liver = conditions: known toxicity of the drug, stated in words

Row | Compound | TOXICITIES EV [1] | liver toxicity (liver)
1 | CCOC(=O)C(C)(C)Oc1ccc(Cl)cc1 [clofibrate] | tc | –
2 | CCC(=O)O[C@H]1[C@H](O[C@@H]2[C@@H](C)[C@H](O[C@H]3C[C@@](C)(OC)[C@@H](O)[C@H](C)O3)[C@@H](C)C(=O)O[C@H](CC)[C@@](C)(O)[C@H](O)[C@@H](C)C(=O)[C@H](C)C[C@@]2(C)O)O[C@H](C)C[C@@H]1N(C)C [erythromycin estolate] | – | known liver toxicity
3 | CN(CCOc1ccc(CC2SC(=O)NC2=O)cc1)c1ccccn1 (stereo not shown) [rosiglitazone] | tc | –
4 | Cc1c(C)c2c(c(C)c1O)CCC(C)(COc1ccc(CC3SC(=O)NC3=O)cc1)O2 (stereo not shown) [troglitazone] | – | rare but severe liver toxicity
